The text below walks through data of patent US11191775B2, “PAPD5 and PAPD7 inhibitors for treating a hepatitis B infection” (HOFFMANN-LA ROCHE INC., priority 2016, dated 2021).

Like-named read-outs stand apart in the source and are kept apart here.

One assay has as its system HBV. The experiment in a line: HBsAg and HBeAg secretion in HepG2.2.15 cells. It counts as cell-based. The conditions noted are these: Hepatitis B virus, 72 h, incubated for 3 days, supernatant, CLIA ELISA. The protocol:
To evaluate the impact on HBV antigen expression and secretion, supernatants were collected on Day 11. HBV HBsAg and HBeAg levels were measured using CLIA ELISA Kits (Autobio Diagnostic #CL0310-2, #CL0312-2), according to the manufacturer's protocol. Briefly, 25 μL of supernatant per well were transferred to the respective antibody coated microtiter plate and 25 μL of enzyme conjugate reagent were added. The plate was incubated for 60 min on a shaker at room temperature before the wells were washed five times with washing buffer using an automatic washer. 25 μL of substrate A and B were added to each well. The plates were incubated on a shaker for 10 min at room temperature before luminescence was measured using an Envision luminescence reader (Perkin Elmer).
The potency of DHQ and THP and their variants against HBV infection were measured in HepG2.2.15 cells using HBsAg and HBeAg as read out.
HepG2.2.15 cells (Sells et al 1987 Proc Natl Acad Sci USA 84, 1005-1009) were cultured in 96 well plates (15.000 cells/well in 100 uL) in DMEM+GluTaMax-1 (GiBCO Cat. NO. 10569), 1% Pen Strep (Gibco Cat. No. 15140), 10% FBS (Clontech Cat. No. 631106), Geneticin […] (Invitrogen 10131035). The compunds were tested using three-fold serial dilutions in DMSO with a top concentration of 100 μM and 9 serial dilutions. Each compound was tested in quadricate. The cells were incubated for 3 days, supernatents were collected and HBsAg and HBeAg were measured as described in the Materials and Methods section.
For orientation: An ELISA detects its analyte on a solid surface through an enzyme-linked reagent.

In another assay the test system is PAPD5 variant 2. As to the kind of experiment: Y3H ULTImate YChemH screen. It counts as binding. Further details: key: confidence score of A (scale A-D). The settings on record: prey PAPD5 variant 2; cDNA Human placenta library. The protocol:
(§1) The two compounds were provided by Roche to HYBRIGENICS SERVICES SAS and tested for permeability and toxicity. Compounds were then screened against HYBRIGENICS's cDNA Human placenta library (PLA). The screens were carried out according to the optimized cell-to-cell mating protocol developed for Hybrigenics ULTImate Y2H™ using at different compound concentration (Table 2).
(§2) Clones obtained from the screen were picked in 96-well format and clones positive for growth under selective conditions (HIS+) were evaluated in a dependency assay using spot assays. Only clones that were able to grow on selective medium in the presence of the tagged compound were being picked up, processed (cell lysis, PCR, gene sequencing) and mapped for protein alignment using Blast analysis.
(§3) Both proteins PAPD5 (variant 1: NP_001035374; variant 2: NP_001035375) and PAPD7 (XP_005248291) were identified by a numerous number of fragments in the Y3H screen for both compounds (DHQ and THP) as described in the Materials and Method section. The identified proteins were ranked with a confidence score of A (scale A-D) by HYBRIGENICS (Table 6).

For a further assay, the system named is PAPD7. As to the kind of experiment: Y3H ULTImate YChemH screen. The settings on record: prey PAPD7; cDNA Human placenta library. Type of assay: binding. Further details: key: confidence score of A (scale A-D). The protocol:
as §1, §2, §3

Assay [1] deals with PAPD5 variant 1 and variant 2 prey fragments. As to the kind of experiment: Y3H ULTImate YChemH 1-by-1 validation, prey fragments. It counts as binding, human. The settings on record: PAPD5 variant 1 and 2 fragments; tested at 5, 10 and 20 μM; FIG. 1. The protocol:
(§4) In this validation step each one identified fragment prey and one chemical probe (HBX129653, HBX129654) is tested in a 1-by-1 experiment. The plasmids from 3 selected preys from the screening library were extracted from the yeast cells, amplified in E. coli and re-transformed into YHGX13 yeast cells. For each interaction, DO1, 1/10, 1/100 and 1/1000 of the diploid yeast culture expressing both hook and prey constructs were spotted on a selective medium without tryptophan, leucine and histidine and supplemented with the chemical probe and FK506. Interactions were tested in duplicate. One plate was used per chemical compound and concentration (DMSO, 5, 10 and 20 μM of HBX129653, 5, 10 and 20 μM of HBX129654, 5 μM of HBX24786 Trimethoprim (TMP) and 5 μM of HBX129634 (TMP-PEG5-OH)). Plates were incubated at 30° C. for 3 days.
(§5) In a first validation step three fragments identified in the first screen were selected for the 1-by-1 validation assay (as described in the Materials and Method section) and tested at three different concentrations (5, 10 and 20 μM) (Table 7).

The next assay concerns PAPD7 prey fragment. Described as above. It counts as binding, human. The settings on record: tested at 5, 10 and 20 μM, FIG. 1. The protocol: as §4, §5
In another assay the target is T1, PAPD5 var1 full length (Homo sapiens, UniProt Q8NDF8).
T1 construct: PAPD5 var1 full length; host or cells: diploid yeast from YHGX13 (prey) x YPT6AT (DHFR hook)
T1 sequence (Q8NDF8 1-698 isoform Q8NDF8-5): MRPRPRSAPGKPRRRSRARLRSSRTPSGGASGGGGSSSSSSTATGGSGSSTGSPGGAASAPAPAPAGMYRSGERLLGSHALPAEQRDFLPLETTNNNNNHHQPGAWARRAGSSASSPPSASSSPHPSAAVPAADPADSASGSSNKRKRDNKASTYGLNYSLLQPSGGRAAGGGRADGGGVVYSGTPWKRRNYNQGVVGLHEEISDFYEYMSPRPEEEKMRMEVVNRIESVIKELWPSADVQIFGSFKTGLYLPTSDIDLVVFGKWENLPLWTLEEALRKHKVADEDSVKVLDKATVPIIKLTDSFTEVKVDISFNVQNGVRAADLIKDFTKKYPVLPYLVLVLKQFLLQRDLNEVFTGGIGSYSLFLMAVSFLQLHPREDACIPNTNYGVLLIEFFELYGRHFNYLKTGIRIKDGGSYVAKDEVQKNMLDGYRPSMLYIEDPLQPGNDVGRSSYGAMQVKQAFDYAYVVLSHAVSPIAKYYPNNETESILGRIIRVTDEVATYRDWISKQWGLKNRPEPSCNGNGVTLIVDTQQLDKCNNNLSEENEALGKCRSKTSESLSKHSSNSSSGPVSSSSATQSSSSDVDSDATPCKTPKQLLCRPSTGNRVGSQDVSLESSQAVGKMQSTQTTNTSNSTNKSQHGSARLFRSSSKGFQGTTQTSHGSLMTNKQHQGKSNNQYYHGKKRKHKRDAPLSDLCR
As to the kind of experiment: Y3H ULTImate YChemH 1-by-1 validation, full length proteins. The conditions noted are these: tested at 5, 10 and 20 μM, FIG. 2. Type of assay: binding. From the text: (§6) The coding sequence of full-length PAPD5var1 (NM_001040284.2) and PAPD7varX1 (XM_005248234.2) were reconstituted from an N-terminal codon-optimized gene fragment (to remove high GC content) and commercially available clones of the C-terminal regions of the proteins and cloned in frame with the Gal4 Activation Domain (AD) into plasmid pP7 (AD-Prey), derived from the original pGADGH (Bartel et al., 1993 in Cellular interactions in development: A practical approach. ed. Hartley, D. A., Oxford University Press, Oxford, pp. 153-179). The constructs were checked by sequencing the entire inserts. For each prey, a mini-mating was carried out between YHGX13 (Y187 ade2-101::IoxP-kanMX-IoxP, matα) transformed with the prey plasmids and YPT6AT yeast cells (mata) transformed with the DHFR hook (Dihydrofolate reductase) to produce a diploid yeast culture. For each interaction, DO1, 1/10, 1/100 and 1/1000 of the diploid yeast culture expressing both hook and prey constructs were spotted on a selective medium without tryptophan, leucine and histidine and supplemented with the chemical probe and FK506. Interactions were tested in duplicate. One plate was used per chemical compound and concentration (DMSO, 5, 10 and 20 μM of HBX129653, 5, 10 and 20 μM of HBX129654, 5 μM of HBX24786 Trimethoprim (TMP) and 5 μM of HBX129634 (TMP-PEG5-OH)). Plates were incubated at 30° C. for 3 days.
(§7) In a second validation step, full length proteins for PAPD5 and PAPD7 were synthesized and used for 1-by-1 validation (as described in the Materials and Method section) with DHQ and THP (Table 8).

For another assay, the target named is T2, PAPD7 var1 full length (Homo sapiens, UniProt Q5XG87).
T2 construct: PAPD7 var1 full length; host or cells: diploid yeast from YHGX13 (prey) x YPT6AT (DHFR hook)
T2 sequence (Q5XG87 whole entry): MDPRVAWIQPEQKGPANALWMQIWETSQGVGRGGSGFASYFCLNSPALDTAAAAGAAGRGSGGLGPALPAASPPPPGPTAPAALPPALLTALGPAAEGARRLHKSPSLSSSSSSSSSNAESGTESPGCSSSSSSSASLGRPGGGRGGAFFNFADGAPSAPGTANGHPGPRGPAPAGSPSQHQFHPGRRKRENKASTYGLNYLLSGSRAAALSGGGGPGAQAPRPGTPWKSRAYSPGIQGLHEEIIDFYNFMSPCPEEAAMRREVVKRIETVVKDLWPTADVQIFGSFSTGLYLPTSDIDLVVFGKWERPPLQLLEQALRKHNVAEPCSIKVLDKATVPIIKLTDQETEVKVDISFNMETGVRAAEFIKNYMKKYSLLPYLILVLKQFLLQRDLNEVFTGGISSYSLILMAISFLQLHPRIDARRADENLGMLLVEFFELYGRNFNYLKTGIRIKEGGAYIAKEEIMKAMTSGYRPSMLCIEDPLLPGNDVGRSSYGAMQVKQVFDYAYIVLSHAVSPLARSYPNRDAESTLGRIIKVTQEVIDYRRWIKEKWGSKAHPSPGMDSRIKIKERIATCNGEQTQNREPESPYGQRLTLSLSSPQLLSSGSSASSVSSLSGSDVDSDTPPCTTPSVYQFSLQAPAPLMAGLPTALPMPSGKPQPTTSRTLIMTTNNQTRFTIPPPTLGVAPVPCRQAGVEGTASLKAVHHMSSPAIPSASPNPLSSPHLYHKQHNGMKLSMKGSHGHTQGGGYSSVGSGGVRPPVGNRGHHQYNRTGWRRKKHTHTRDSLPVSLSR
The assay is described as above. It counts as binding. The conditions noted are these: tested at 5, 10 and 20 μM, FIG. 2.
Excerpt: as §6, §7

Assay [2] has as its target T3, PAPD5 var1 (experimental fragment and full length) (Homo sapiens, UniProt Q8NDF8).
T3 construct: PAPD5 var1 full length; host or cells: diploid yeast from YHGX13 (prey) x YPT6AT (DHFR hook)
As to the kind of experiment: Y3H ULTImate YChemH competition with free compound. Type of assay: binding. The conditions noted are these: probe HBX129653 or HBX129654 1 μM, free compound 0-20 μM, FIG. 3-6. The protocol:
(§8) The competition assays were performed on selective medium at 8 concentrations of the free compound (0, 0.25, 0.5, 1, 2, 5, 10 and 20 μM) and a consistent concentration for the tagged Y3H-compound (1 μM).

Assay [3] deals with T4, PAPD7 varX1 (experimental fragment and full length) (Homo sapiens, UniProt Q5XG87).
T4 construct: PAPD7 var1 full length; host or cells: diploid yeast from YHGX13 (prey) x YPT6AT (DHFR hook)
T4 sequence (Q5XG87 whole entry, the tested form may be a part): as the sequence (Q5XG87 whole entry) above
The experiment in a line: Y3H ULTImate YChemH competition with free compound. It counts as binding. The conditions noted are these: probe HBX129653 or HBX129654 1 μM, free compound 0-20 μM, FIG. 3-6. The protocol:
as §8

A further assay deals with hepatitis C virus (HCV). As to the kind of experiment: Activity against hepatitis C virus (data not shown).
A further assay relates to PAPD5 variant 1. The experiment in a line: Y3H ULTImate YChemH screen. Type of assay: binding. Details: key: confidence score of A (scale A-D). The conditions noted are these: prey PAPD5 variant 1; cDNA Human placenta library. The protocol:
as §1, §2, §3

T3 sequence (Q8NDF8 1-698 isoform Q8NDF8-5): as the sequence (Q8NDF8 1-698 isoform Q8NDF8-5) above

By IC50 is commonly meant the concentration that inhibits the measured activity by half. For `COc1cc(Cc2cnc(N)nc2N)cc(OC)c1OCCOCCOCCOCCOCCOCCOc1cc(N2CCc3nc(-c4ncccn4)ncc3[C@H]2C)cc(F)c1F` [HBX129654], the IC50 with HBV (read-out: IC50 HBsAg) amounted to 299 nM. The Confidence score entry in the assay on PAPD5 variant 2 and with PAPD7 was “A” throughout.
For the compound `COc1cc(N2CCc3nc(-c4ncccn4)ncc3[C@H]2C)cc(F)c1F` [MOL654], the IC50 with HBV (read-out: IC50 HBsAg) was 3 nM. Also, the “1-by-1 validation of binding to prey fragments” value (in assay [1]; in the assay with PAPD7 prey fragment) was “specific binders” each time. The “1-by-1 validation of interaction with full length protein” value on PAPD5 var1 full length and at PAPD7 var1 full length was “confirmed at the lowest tested concentration” in each case. For the same compound, the “competition of free compound with chemical probe” value (from here on “competition of free compound”) in assay [2] and in assay [3] was “competition could be observed” throughout. The “activity against hepatitis C virus (HCV)” value in the assay with hepatitis C virus (HCV) is “inactive”.
For `COc1cc2c(cc1OCCOCCOCCOCCOCCOCCOc1c(OC)cc(Cc3cnc(N)nc3N)cc1OC)C[C@@H](C(C)(C)C)n1cc(C(=O)O)c(=O)cc1-2` [HBX129653], the IC50 in the assay on HBV (read-out: IC50 HBsAg) stood at 1180 nM. Moreover, the Confidence score result in the assay on PAPD5 variant 1 and with PAPD7 was “A” each time.
Regarding `COCCCOc1cc2c(cc1Cl)-c1cc(=O)c(C(=O)O)cn1[C@H](C(C)C)C2` [MOL653], the concentration for half-maximal inhibition (IC50) amounted to 7 nM in the assay on HBV (read-out: IC50 HBeAg) and 3 nM with HBV (read-out: IC50 HBsAg). Besides, the “1-by-1 validation of binding to prey fragments” value (in assay [1]; with PAPD7 prey fragment) was “specific binders” each time. For the same compound, the “1-by-1 validation of interaction with full length protein” value on PAPD5 var1 full length and at PAPD7 var1 full length was “confirmed at the lowest tested concentration” throughout. Besides, the “competition of free compound” value in [2] and in assay [3] was “competition could be observed” each time. In addition, in the assay with hepatitis C virus (HCV), the “activity against hepatitis C virus (HCV)” value is “inactive”.
Turning to `COCCCOc1cc2c(cc1OC)-c1cc(=O)c(C(=O)O)cn1[C@@H](C(C)C)C2` [INACT653], the “competition of free compound” value in assay [2] and in [3] was “less binding affinity” throughout.
Consider `COc1cccc(-c2ncc3c(n2)CCN(c2cc(F)c(F)c(OC)c2)C3)n1` [INACT654], for which the half-maximal inhibitory concentration (IC50) with HBV (read-out: IC50 HBsAg) is over 25000 nM.
